From patent US10683260B2, “Crystalline form of sacubitril sodium salt” (NORATECH PHARMACEUTICALS, INC., priority 2016, dated 2020)

Legend:
[1] = Determination of the hygroscopicity (water absorption in artificial climate chamber); format: physicochemical; settings: for Water absorption, %: open weighing bottle, 25±1° C., relative humidity 43.5±2%; for water content: open container, 25° C., relative humidity 43.5%, 3 hours
Description: 1. Take a dry stuffed glass weighing bottle (outer diameter 50 mm, height 15 mm) in the artificial climate chamber (set temperature is 25±1° C., relative humidity is 43.5±2%) and weight it (m1).
2. Take the appropriate amount of the crystalline form in the present invention, and place it in the abovementioned weighing bottle and lay it inside the weighing bottle. The thickness of the test sample is generally about 1 mm. Weight the sample (m2).
3. Uncover the weighing bottle and place it with the bottle cap under constant temperature and humidity (set temperature is 25±1° C., relative humidity is 43.5±2%).
4. Put the cap back on the weighing bottle before weighing, and then weight it (m3). The water absorption percentage for each time point is calculated by the formula=(m3−m2)/(m2−m1)×100%.

[2] = free acid; background statement; cited from earlier work
AT1 receptor = biological target: T1, AT1 receptor (Homo sapiens, UniProt P30556); settings: AT1 versus AT2 receptor; background statement; cited from earlier work
T1 sequence (P30556 1-359): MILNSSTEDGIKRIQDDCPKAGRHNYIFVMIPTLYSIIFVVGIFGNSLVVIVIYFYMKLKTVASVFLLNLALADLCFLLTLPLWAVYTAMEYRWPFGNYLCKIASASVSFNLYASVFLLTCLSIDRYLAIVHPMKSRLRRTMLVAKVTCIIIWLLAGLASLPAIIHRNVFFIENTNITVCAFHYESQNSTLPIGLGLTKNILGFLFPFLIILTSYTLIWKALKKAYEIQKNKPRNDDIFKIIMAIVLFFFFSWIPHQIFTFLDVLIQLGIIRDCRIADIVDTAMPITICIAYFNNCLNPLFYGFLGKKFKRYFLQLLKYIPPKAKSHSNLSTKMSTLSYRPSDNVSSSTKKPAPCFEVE

In the case of CCOC(=O)[C@H](C)C[C@@H](Cc1ccc(-c2ccccc2)cc1)NC(=O)CCC(=O)[O-].[Na+] [A], the “Water absorption, %” value ([1]; 1.5 h) is reported as 0.6%, the “Water absorption, %” value ([1]; 3 h) is reported as 1.4% and the water content ([1]; listed as crystalline form A) is reported as 1.4%.
For CCOC(=O)[C@H](C)C[C@@H](Cc1ccc(-c2ccccc2)cc1)NC(=O)CCC(=O)[O-].[Na+] [B], the “Water absorption, %” value ([1]; 1.5 h) was 0.5% and the “Water absorption, %” value ([1]; 3 h) was 1.0%.
With CCOC(=O)[C@H](C)C[C@@H](Cc1ccc(-c2ccccc2)cc1)NC(=O)CCC(=O)[O-].[Na+] [C] the “Water absorption, %” value ([1]; 1.5 h) was 1.2%, the “Water absorption, %” value ([1]; 3 h) was 2.4% and the water content ([1]; listed as crystalline form C) was 2.4%.
With CCOC(=O)[C@H](C)C[C@@H](Cc1ccc(-c2ccccc2)cc1)NC(=O)CCC(=O)[O-].[Na+] [D] the “Water absorption, %” value ([1]; 1.5 h) was 1.5% and the “Water absorption, %” value ([1]; 3 h) was 3.2%.
For CCOC(=O)[C@H](C)C[C@@H](Cc1ccc(-c2ccccc2)cc1)NC(=O)CCC(=O)[O-].[Na+] [E], the “Water absorption, %” value ([1]; 1.5 h) was 2.4% and the “Water absorption, %” value ([1]; 3 h) was 4.3%.
With CCOC(=O)[C@H](C)C[C@@H](Cc1ccc(-c2ccccc2)cc1)NC(=O)CCC(=O)[O-].[Na+] [sacubitril sodium salt X, reference compound] the “Water absorption, %” value ([1]; 1.5 h) was 8.3%, the “Water absorption, %” value ([1]; 3 h) was 11.0% and the “hygroscopicity (in words)” value ([1]; solid form, no conditions stated) was “great hygroscopicity”.
In the case of CCOC(=O)[C@H](C)C[C@@H](Cc1ccc(-c2ccccc2)cc1)NC(=O)CCC(=O)O [sacubitril, 4-{[(2S,4R)-1-([1,1′-biphenyl]-4-yl)-5-ethoxy-4-methyl-5-oxopentan-2-yl]amino}-4-oxobutanoic acid], the “water solubility (in words)” value [2] is given as “poor water solubility”.
For AngII, the “affinity for the AT1 receptor relative to the AT2 receptor” value (AT1 receptor) is listed as 300 times.
